Assay results taken from the NIST ThermoML archive (doi:10.1021/je900199j).
Several values for one entry are separate records, joined by “and”; a condition that tells them apart may be missing. Equal entries are not always repeated.

Assay: mn = molality of the nth substance listed, in mol/kg
Conditions: 101 kPa, Liquid; for speed of sound: Frequency=4 MHz

[Cl-].[K+] [potassium chloride] + O
m1 = 2.13
Conditions	mass density [kg/m3]	speed of sound [m/s]
298.15 K	1087.7	1592.8
303.15 K	1085.7	1600.4
308.15 K	1083.6	1608
313.15 K	1081.3	1614
318.15 K	1078.8	1617.2
323.15 K	1076.1	1622

O=[N+]([O-])[O-].[K+] [potassium nitrate] + O
m1 = 2.19
Conditions	mass density [kg/m3]	speed of sound
298.15 K	1115	1558.8 m/s
303.15 K	1112.5	1566.8 m/s
308.15 K	1109.8	1572.8 m/s and 1572.6 m/s
313.15 K	1107	1577.6 m/s
318.15 K	1104	1582 m/s
323.15 K	1100.9	1586.4 m/s
